Here are results for 15 molecules from patent US20030100550A1, “Carboxamide diazepin derivatives, preparation method, use as medicines, pharmaceutical compositions and use thereof” (priority 2002, published 2003).

A word on the pIC50: it is the IC50 on a negative log10 scale, so that one unit is a factor of ten.

Common to all, as to assay type: biochemical
For one assay, the target named is T1, Cathepsin K (Homo sapiens, UniProt P43235).
T1 sequence (P43235 115-329): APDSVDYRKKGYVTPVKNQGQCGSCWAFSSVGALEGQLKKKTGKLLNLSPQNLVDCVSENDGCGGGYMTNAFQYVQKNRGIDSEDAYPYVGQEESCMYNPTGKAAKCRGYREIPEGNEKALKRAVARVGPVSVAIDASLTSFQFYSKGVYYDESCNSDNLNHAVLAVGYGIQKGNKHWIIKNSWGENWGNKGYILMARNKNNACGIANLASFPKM
In words: Study of Cathepsin K inhibition (fluorescence, Z-Val-arg-AMC). Conditions: substrate Z-Val-arg-AMC 20 μM, enzyme 5 ng/ml, 2H at ambient temperature; read-out: Cathepsin K IC50. The procedure: Study of Cathepsin K Inhibition:
(§1) The products to be tested (10 mM) are diluted to […] in DMSO and distributed into Nunc polystyrene 96 well plates at a rate of 2 μl per well. Column 12 of the plate is reserved for the controls and therefore receives […] of DMSO (without products) per well. The plates are stored at −80° C. and thawed on the day of the experiment.
(§2) The products are diluted to 50 μM by adding 38 μl of reaction buffer: sodium acetate 100 mM, EDTA 5 mM, DTT […] pH 5.5. The addition as well as all the operations by pipette are carried out with a CybiWell 96 tip pipette. After mixing the solutions, each product is transferred into 2 wells (duplicates) of a Greiner black 384 well plate at a rate of 10 μl per well. Two 96-well plates can therefore be tested in a 384-well plate.
(§3) A solution of substrate at 50 μM, Z-Val-arg-AMC (Calbiochem), is prepared in the reaction buffer. The substrate, is then distributed into all the wells of the 384-well plate (20 μl per well).
(§4) A solution of Cathepsin K at 12.5 ng/ml is prepared in the reaction buffer and distributed into all the wells of the 384-well plate (20 μl per well) except for the 16 wells serving as 100% inhibition controls (column 23 and 24, lines I to P) which receive 20 μl of enzyme-free buffer.
(§5) The plates are then incubated 2H at ambient temperature, then read on Fluoroskan (Labsystems): excitation 390 nm; emission 460 nm
(§6) The final concentrations of each of the reagents are: products 10 μM, substrate 20 μM, enzyme 5 ng/ml.
(§7) The % inhibition for each of the products is calculated by using points at 0 and 100% inhibition of each plate as references. The products presenting a significant inhibition are then retested on a range of concentrations from 50 to 0.5 μM to determine an IC50.

A further assay addresses T2, Papain (Carica papaya, UniProt P00784).
T2 construct: purchased Sigma
T2 sequence (P00784 134-345): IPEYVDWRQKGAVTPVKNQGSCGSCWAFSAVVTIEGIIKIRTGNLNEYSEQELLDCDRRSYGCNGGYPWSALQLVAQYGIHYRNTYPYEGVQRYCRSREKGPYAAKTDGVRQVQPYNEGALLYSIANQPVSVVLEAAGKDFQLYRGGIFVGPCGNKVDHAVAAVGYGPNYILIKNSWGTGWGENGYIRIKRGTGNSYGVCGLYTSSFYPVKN
The experiment in a line: Study of Papain inhibition (fluorescence). Conditions: enzyme 20 ng/ml, 30 minutes at ambient temperature. The procedure:
as §1, §2, §3, §4, §5, §6, §7
Study of Papain Inhibition:
(§8) Protocol identical to that of Cathepsin K except for:
Papain (Sigma), solution at 50 ng/ml, final concentration 20 ng/ml
Incubation for 30 minutes at ambient temperature

Another assay has as its target T3, Cathepsin B (Homo sapiens, UniProt P07858).
T3 construct: purchased Calbiochem
The experiment in a line: Study of Cathepsin B inhibition (fluorescence, Z-arg-arg-AMC). Conditions: for pIC50: substrate Z-arg-arg-AMC 20 μM, enzyme 16 ng/ml, 1 hour at ambient temperature. The procedure:
as §1, §2, §3, §4, §5, §6, §7
Study of Cathepsin B Inhibition:
as §8
Z-arg-arg-AMC substrate (Calbiochem), solution at 50 μM, final concentration 20 μM
Cathepsin B (Calbiochem), solution at 40 ng/ml, final concentration 16 ng/ml
Incubation for 1 hour at ambient temperature

pIC50: −log10 of the molar value.

With `C=CCOC(=O)CC[C@H](NC(=O)[C@@H]1CCCN2C(=O)CC[C@H](NC(=O)Nc3ccc(Oc4ccccc4)cc3)C(=O)N12)C(=O)CSc1nnnn1-c1ccccc1` [Example 128, (2-propenyl)(4S)6-[(1-phenyl-1H-tetrazol-5-yl)thio]-4-[[[(1S,9S)-9-[[[(4-phenoxyphenyl)amino]carbonyl]amino]-octahydro-6,10-dioxo-6H-pyridazino[1,2-a][1,2]diazepine-1-yl]carbonyl]amino]-5-oxo-hexanoate], the pIC50 at Cathepsin K is 4.70; against Papain it was 5.22. At Papain, `C=CCOC(=O)CC[C@H](NC(=O)[C@@H]1CCCN2C(=O)CC[C@H](NC(=O)Nc3ccc(Oc4ccccc4)cc3)C(=O)N12)C(=O)CSc1nc2ccccc2s1` [Example 129, (2-propenyl)(4S)6-[(benzothiazol-2-yl)thio]-4-[[[(1S,9S)-9-[[[(4-phenoxyphenyl)amino]carbonyl]amino]-octahydro-6,10-dioxo-6H-pyridazino[1,2-a][1,2]diazepine-1-yl]carbonyl]amino]-5-oxo-hexanoate] gave a pIC50 of 5.40. As for `C=CCOC(=O)CC[C@H](NC(=O)[C@@H]1CCCN2C(=O)CC[C@H](NC(=O)Nc3ccc(Oc4ccccc4)cc3)C(=O)N12)C(=O)CSCc1ccc(OC)cc1` [Example 130, (2-propenyl)(4S)6-[[(4-methoxyphenyl)methyl]thio]-4-[[[(1S,9S)-9-[[[(4-phenoxyphenyl)amino]carbonyl]amino]-octahydro-6,10-dioxo-6H-pyridazino[1,2-a][1,2]diazepine-1-yl]carbonyl]amino]-5-oxo-hexanoate], the pIC50 was 4.70 at Cathepsin K and 5.22 against Papain. For `C=CCOC(=O)CC[C@H](NC(=O)[C@@H]1CCCN2C(=O)CC[C@H](NC(=O)Nc3ccc(Oc4ccccc4)cc3)C(=O)N12)C(=O)COC(=O)c1ccncc1` [Example 131, (2-propenyl)(4S)6-[[(4-pyridinyl)carbonyl]oxy]-4-[[[(1S,9S)-9-[[[(4-phenoxyphenyl)amino]carbonyl]amino]-octahydro-6,10-dioxo-6H-pyridazino[1,2-a][1,2]diazepine-1-yl]carbonyl]amino]-5-oxo-hexanoate], in that order: 5.15 and 5.05.

In the case of `C=CCOC(=O)CC[C@H](NC(=O)[C@@H]1CCCN2C(=O)CC[C@H](NC(=O)Nc3ccc(Oc4ccccc4)cc3)C(=O)N12)C(=O)COC(=O)Cc1ccsc1` [Example 134, (2-propenyl)(4S)6-[1-oxo-2-(thien-3-yl)ethoxy]-4-[[[(1S,9S)-9-[[[(4-phenoxyphenyl)amino]carbonyl]amino]-octahydro-6,10-dioxo-6H-pyridazino[1,2-a][1,2]diazepine-1-yl]carbonyl]amino]-5-oxo-hexanoate], the pIC50 at Cathepsin K is 4.70; against Papain it was 5.15. The corresponding values for `[N-]=[N+]=CC(=O)[C@H](Cc1ccccc1)NC(=O)[C@@H]1CCCN2C(=O)CC[C@H](NS(=O)(=O)c3ccc(-c4ccon4)s3)C(=O)N12` [Example 166, 9-[(9S)-[[5-(isoxazol-3-yl)-2-thienyl]sulphonyl]amino]-N-((2S)-4-diazo-1-phenyl-3-oxo-2-butyl)-octahydro-6,10-dioxo-6H-(1S)-pyridazino[1,2-a][1,2]diazepine-1-carboxamide] are 4.70 and 5.70.

Consider `O=C(Nc1ccc(Oc2ccccc2)cc1)N[C@H]1CCC(=O)N2CCC[C@@H](C(=O)N[C@@H](Cc3ccccc3)C(=O)CSc3nnnn3-c3ccccc3)N2C1=O` [Example 211, 9-[(9S)-[[(4-phenoxyphenyl)amino]carbonyl]amino]-N-[(2S)-1-phenyl-4-[(1-phenyl-1H-tetrazol-5-yl)thio]-3-oxo-2-butyl]-octahydro-6,10-dioxo-6H-(1S)-pyridazino[1,2-a][1,2]diazepine-1-carboxamide], for which the negative logarithm of the IC50 (pIC50) on Cathepsin K was 4.70; on Papain, 5.22. On Papain, `O=C(Nc1ccc(Oc2ccccc2)cc1)N[C@H]1CCC(=O)N2CCC[C@@H](C(=O)N[C@@H](Cc3ccccc3)C(=O)COC(=O)Cc3ccsc3)N2C1=O` [Example 216, 9-[(9S)-[[(4-phenoxyphenyl)amino]carbonyl]amino]-N-[(2S)-1-phenyl-4-[1-oxo-2-(3-thienyl)ethoxy]-3-oxo-2-butyl]-octahydro-6,10-dioxo-6H-(1S)-pyridazino[1,2-a][1,2]diazepine-1-carboxamide] had a pIC50 of 5.22. `O=C(CSc1nc2ccccc2s1)[C@H](Cc1ccccc1)NC(=O)[C@@H]1CCCN2C(=O)CC[C@H](NS(=O)(=O)c3ccc(C(F)(F)F)cc3)C(=O)N12` [Example 241, 9-[(9S)-[[[4-(trifluoromethyl)phenyl]sulphonyl]amino]-N-[(2S)-1-phenyl-4-(2-benzothiazolyl)thio]-3-oxo-2-butyl]-octahydro-6,10-dioxo-6H-(1S)-pyridazino[1,2-a][1,2]diazepine-1-carboxamide]: the pIC50 on Papain was 5.15. Still for that read-out and setting: under `COc1cccc(C(=O)N[C@H]2CCC(=O)N3CCC[C@@H](C(=O)N[C@H](C(=O)CSc4nc5ccccc5s4)C(C)C)N3C2=O)c1` [Example 366, 9-[(9S)-(3-methoxybenzoyl)amino]-N-[(3S)-1-[(benzothiazol-2-yl)thio]-4-methyl-2-oxo-3-pentyl]-octahydro-6,10-dioxo-6H-(1S)-pyridazino[1,2-a][1,2]diazepine-1-carboxamide] stands 4.77.

In the case of `CC(C)[C@H](NC(=O)[C@@H]1CCCN2C(=O)CC[C@H](NC(=O)NCCc3cccs3)C(=O)N12)C(=O)CSc1nc2ccccc2s1` [Example 398, 9-[(9S)-[[[2-(thien-2-yl)-ethyl]amino]carbonyl]amino]-N-[(3S)-1-[(benzothiazol-2-yl)thio]-4-methyl-2-oxo-3-pentyl]-octahydro-6,10-dioxo-6H-(1S)-pyridazino[1,2-a][1,2]diazepine-1-carboxamide], the pIC50 against Papain is 5.05. In the case of `C[C@H](NC(=O)[C@@H]1CCCN2C(=O)CC[C@H](NC(=O)NC3CCCCC3)C(=O)N12)C(=O)COC(=O)c1c(Cl)cccc1Cl` [Example 433, 9-[(9S)-[(cyclohexylamino)carbonyl]amino]-N-[(2S)-4-[(2,6-dichlorobenzoyl)oxy]-3-oxo-2-butyl]-octahydro-6,10-dioxo-6H-(1S)-pyridazino[1,2-a][1,2]diazepine-1-carboxamide], the pIC50 at Cathepsin K is 4.70; on Cathepsin B it was 5.40. The corresponding values for `C[C@H](NC(=O)[C@@H]1CCCN2C(=O)CC[C@H](NC(=O)Nc3ccc(Oc4ccccc4)cc3)C(=O)N12)C(=O)COC(=O)c1c(Cl)cccc1Cl` [Example 453, 9-[(9S)-[[(4-phenoxyphenyl)amino]carbonyl]amino]-N-[(2S)-4-[(2,6-dichlorobenzoyl)oxy]-3-oxo-2-butyl]-octahydro-6,10-dioxo-6H-(1S)-pyridazino[1,2-a][1,2]diazepine-1-carboxamide] are 4.70 and 5.05. As for `C[C@H](NC(=O)[C@@H]1CCCN2C(=O)CC[C@H](NC(=O)NCCc3cccs3)C(=O)N12)C(=O)COC(=O)c1c(Cl)cccc1Cl` [Example 473, 9-[(9S)-[[[2-(thien-2-yl)-ethyl]amino]carbonyl]amino]-N-[(2S)-4-[(2,6-dichlorobenzoyl)oxy]-3-oxo-2-butyl]-octahydro-6,10-dioxo-6H-(1S)-pyridazino[1,2-a][1,2]diazepine-1-carboxamide], the pIC50 at Cathepsin K is 4.70; at Cathepsin B it was 5.82. Regarding “(2-propenyl)(4S)6-diazo-4-[[[(1S,9S)-9-[[[[2-(p-2-yl)-ethyl]amino]carbonyl]amino]-octahydro-6,10-dioxo-6H-pyridazino[1,2-a][1,2]diazepine-1-yl]carbonyl]amino]-5-oxo-hexanoate [Example 44]”, at Cathepsin K, the pIC50 is 5.70. Further, the “Cathepsin B, percentage in parentheses beside IC50 value (% inhibition)” value on Cathepsin B (printed beside 20 μM, meaning not explained) is on record as 40%.
